{"source": "patent US3995028A", "about": "“Antibiotic OS-3256-B” (The Kitasato Institute, priority 1975, dated 1976)", "origin": "cited, not measured here", "test_system": "animal tumors such as leukemia L-1210, Sarcoma-180 and Hela cells", "data": [{"smiles": "C[C@H](N)C(=O)N[C@@H](CCC(=O)C=[N+]=[N-])C(=O)N[C@@H](CCC(=O)C=[N+]=[N-])C(=O)O", "note": "[Alazopeptin, L-alanyl-(6-diazo-5-oxo)-L-norleucyl-(6-diazo-5-oxo)-L-norleucine]", "values": [{"measurement": "inhibitory activity against animal tumors", "value": "inhibitory activity against animal tumors"}]}]}
